# Results: patent publication US20240391923A1, “METHIONINE ADENOSYLTRANSFERASE 2A INHIBITOR FOR TREATING MTAP DELETION-TYPE CANCER” (SUZHOU GENHOUSE BIO CO., LTD., priority 2022, published 2024)
# Where two headings read alike, the source gives them in different places.
# Legend:
# Hut-78 cell strain = assay: Tumor cell proliferation inhibition assay (CellTiter-Glo), Hut-78; assay type: cell-based; conditions: Homo sapiens, HuT78, 120 h, Hut-78 cells, 5-day treatment
# Experimental: After the HCT116-MTAP-knockout (−/−) cell strain, the HCT116-MTAP wild-type(+/+)-cell strain, the DOHH-2 cell strain, or the Hut-78 cell strain was treated with the test compound for 5 days, the ATP level was measured using a CellTiter-Glo kit of Promega to evaluate the inhibition of the test compound against the growth of the tumor cell strain.
# In the present application, the HCT116-MTAP-knockout (−/−) cell strain, the HCT116-MTAP wild-type (+/+)-cell strain, the DOHH-2 cell strain, or the Hut-78 cell strain was seeded into a 96-well cell culture plate at an appropriate cell density. After 24 h, the cells were treated using the test compounds diluted 1:3 fold at the highest concentration of 10 μM for 10 gradients, and a DMSO treatment group was set up separately. The cells were cultured in a 37° C./5% CO2 incubator for 5 days.
# [1] = system: SDMA in human colon cancer cell line HCT116; assay: Cell symmetric dimethylarginine (SDMA) test, In-cell Western, HCT116 (MTAP wild-type); assay type: cell-based; conditions: Homo sapiens, HCT-116, 96 h
# How it was run: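 SDMA level, an indirect readout of cellular MAT2A inhibition, measured by In-cell Western as background-subtracted 800/700 nm signal against DRAQ5. Cells exposed 4 days to six 1:4-diluted doses from 6 μM; inhibition relative to DMSO, IC50 from sigmoidal fit.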
# [2] = system: HCT116-MTAP wild-type (+/+)-cell strain; assay: Tumor cell proliferation inhibition assay (CellTiter-Glo), HCT116-MTAP wild-type (+/+); assay type: cell-based; conditions: Homo sapiens, 120 h, HCT116-MTAP wild-type (+/+) cells, 5-day treatment
# How it was run: (§1)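 Cells seeded, then after 24 h treated with 10-point 1:3 dilutions from 10 μM top concentration, DMSO control. Cultured 5 days at 37 °C/5% CO2; growth inhibition from ATP level by CellTiter-Glo luminescence.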
# [3] = system: SDMA in HCT116-MTAP-knockout cell line; assay: Cell symmetric dimethylarginine (SDMA) test, In-cell Western, HCT116-MTAP-knockout; assay type: cell-based; conditions: Homo sapiens, 96 h
# [4] = target: MAT2A recombinant protein (Homo sapiens, UniProt P31153); assay: MAT2A inhibitory activity (malachite green colorimetric enzyme assay); assay type: biochemical
# Sequence of MAT2A recombinant protein (P31153 whole entry): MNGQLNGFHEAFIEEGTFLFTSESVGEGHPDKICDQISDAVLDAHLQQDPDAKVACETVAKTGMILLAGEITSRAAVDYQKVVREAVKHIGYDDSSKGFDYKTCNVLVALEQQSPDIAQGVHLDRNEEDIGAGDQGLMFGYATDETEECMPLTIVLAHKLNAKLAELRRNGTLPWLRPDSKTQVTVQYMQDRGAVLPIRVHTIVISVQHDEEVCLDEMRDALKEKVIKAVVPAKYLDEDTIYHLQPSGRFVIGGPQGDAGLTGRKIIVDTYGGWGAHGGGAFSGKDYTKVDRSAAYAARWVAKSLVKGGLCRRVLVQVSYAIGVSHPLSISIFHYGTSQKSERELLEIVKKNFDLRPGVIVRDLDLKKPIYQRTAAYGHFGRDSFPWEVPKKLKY
# How it was run: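 Compounds tested over 10 points, 3-fold dilutions, top final concentration 1000 nM. Enzyme reaction: MAT2A, L-methionine, ATP, room temperature, 60 min, in HEPES pH 7.5 buffer with KCl, MgCl2 and DTT; inorganic phosphate read colorimetrically (malachite green, A630). Inhibition vs log concentration fitted for IC50.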
# [5] = system: HCT116-MTAP-knockout (−/−) cell strain; assay: Tumor cell proliferation inhibition assay (CellTiter-Glo), HCT116-MTAP-knockout (-/-); assay type: cell-based; conditions: Homo sapiens, 120 h, HCT116-MTAP-knockout (−/−) cells, 5-day treatment
# How it was run: as §1
# [6] = IC50 score, read-out: Tumor cell 5-day relative growth inhibition (Hut-78) (nM), score
# [7] = IC50 value, read-out: Tumor cell 5-day relative growth inhibition (Hut-78)
# [8] = IC50 score class, read-out: Cell 96 h SDMA Inhibition (HCT116-MTAP+/+) (score)
# [9] = read-out: Cell 96 h SDMA inhibition (HCT116-MTAP+/+)
# [10] = IC50 score, read-out: Tumor cell 5-day relative growth inhibition (HCT116-MTAP+/+) (nM), score
# [11] = IC50 value, read-out: Tumor cell 5-day relative growth inhibition (HCT116-MTAP+/+)
# [12] = IC50 score class, read-out: Cell 96 h SDMA Inhibition (HCT116-MTAP−/−) (score)
# [13] = read-out: Cell 96 h SDMA Inhibition (HCT116-MTAP−/−)
# [14] = IC50 score class, read-out: MAT2A Inhibition (score)
IC50 (Hut-78 cell strain; [6]) [nM],IC50 (Hut-78 cell strain; [7]) [nM],"IC50 [1, 8] [nM]","IC50 [1, 9] [nM]","IC50 [2, 10] [nM]","IC50 [2, 11] [nM]","IC50 [3, 12] [nM]","IC50 [3, 13] [nM]","IC50 [4, 14] [nM]",IC50 ([4]; read-out: MAT2A Inhibition) [nM],"IC50 ([5]; IC50 score, read-out: Tumor cell 5-day relative growth inhibition (HCT116-MTAP−/−) (nM), score) [nM]","IC50 ([5]; IC50 value, read-out: Tumor cell 5-day relative growth inhibition (HCT116-MTAP−/−)) [nM]",SMILES
< 500,21.8,200 to 1000,206,500 to 2000,1740,< 200,25,,,,,"Cn1cc2c(n1)c(=O)n(-c1cccnc1C1CC1)c1nc(C(F)(F)F)ccc21 (single isomer, unassigned) [Compound B213]"
500 to 2000,1100,> 3000,4880,≥ 2000,> 2000,1000 to 3000,2650,< 100,25.6,,,CCn1nc2c(=O)n(-c3cccnc3)c3cc(Cl)ccc3c2c1F [Compound B33]
≥ 2000,> 2000,< 200,24.7,≥ 2000,> 2000,1000 to 3000,2730,< 100,55.2,,,NC(=O)CC1N=c2c(c3ccc(Cl)cc3n(-c3cccnc3)c2=O)=N1 (centres unmarked) [Compound B36]
≥ 2000,6430,1000 to 3000,1260,≥ 2000,> 2000,200 to 1000,888,< 100,51.7,,,CNC(=O)CC1N=c2c(c3ccc(Cl)cc3n(-c3cccnc3)c2=O)=N1 (centres unmarked) [Compound B37]
< 500,83,1000 to 3000,1520,≥ 2000,3570,< 200,118,< 100,18,< 500,104,O=c1c2nn(C(F)F)cc2c2ccc(Cl)cc2n1-c1cccnc1 [Compound B55]
< 500,18.8,> 3000,> 3000,500 to 2000,621,< 200,4,< 100,48.2,,,Cc1ncccc1-n1c(=O)c2[nH]ncc2c2ccc(C3CC3)nc21 [Compound B95]
< 500,50.4,> 3000,> 3000,≥ 2000,> 2000,< 200,48.7,< 100,59.7,,,Cc1ncccc1-n1c(=O)c2[nH]ncc2c2ccc(OC(F)(F)F)cc21 [Compound B101]
500 to 2000,866,200 to 1000,858,,,200 to 1000,300,< 100,24.3,,,Cn1cc2c(n1)c(=O)n(-c1ccccc1)c1nc(C(F)(F)F)ccc21 [Compound B177]
< 500,378,1000 to 3000,2450,,,200 to 1000,255,< 100,26.9,,,Cn1cc2c(n1)c(=O)n(-c1cccc(C#N)c1)c1nc(C(F)(F)F)ccc21 [Compound B192]
500 to 2000,696,1000 to 3000,2110,,,200 to 1000,387,< 100,25,,,Cn1cc2c(n1)c(=O)n(-c1cccc(F)c1)c1nc(C(F)(F)F)ccc21 [Compound B193]
< 500,9.3,200 to 1000,691,,,< 200,25.3,< 100,45.1,,,Cn1cc2c(n1)c(=O)n(-c1cccnc1Cl)c1nc(C(F)(F)F)ccc21 [Compound B196]
< 500,40.4,200 to 1000,634,,,< 200,66.6,< 100,51.4,,,COc1ncccc1-n1c(=O)c2nn(C)cc2c2ccc(C(F)(F)F)nc21 [Compound B203]
< 500,312,1000 to 3000,1190,,,1000 to 3000,1850,< 100,67.4,,,O=c1c2nn(C3CCOC3)cc2c2ccc(C(F)(F)F)nc2n1-c1cccnc1 (centres unmarked) [Compound B204]
≥ 2000,> 2000,1000 to 3000,1290,,,1000 to 3000,1180,< 100,93,,,Cn1cc2c(n1)c(=O)n(-c1ccc3[nH]cnc3c1)c1cc(Cl)ccc21 [Compound B206]
< 500,47.7,1000 to 3000,1020,500 to 2000,1150,< 200,39.1,< 100,35.8,,,Cc1ncccc1-n1c(=O)c2nn(C3CC3)cc2c2ccc(C(F)(F)F)nc21 [Compound B211]
< 500,245,200 to 1000,433,≥ 2000,3590,< 200,134,< 100,25.3,,,Cc1[nH]nc2c(=O)n(-c3cccnc3)c3nc(C(F)(F)F)ccc3c12 [Compound B216]
≥ 2000,5430,> 3000,> 3000,≥ 2000,> 2000,1000 to 3000,1820,,,,,Cc1cncc(-n2c(=O)c3nn(C)cc3c3ccc(C(F)(F)F)nc32)c1 [Compound B217]
< 500,130,> 3000,> 3000,≥ 2000,3990,< 200,39.5,< 100,77.9,,,COc1ccc(-n2cc3c(n2)c(=O)n(-c2ccccc2)c2nc(C(F)(F)F)ccc32)cc1 [Compound B218]
≥ 2000,10600,200 to 1000,475,≥ 2000,> 2000,1000 to 3000,2540,< 100,52.7,,,Cn1cc2c(n1)c(=O)n(-c1cncc(O)c1)c1nc(C(F)(F)F)ccc21 [Compound B221]
500 to 2000,1360,200 to 1000,583,≥ 2000,> 2000,200 to 1000,692,,,,,Cc1ccc(-n2c(=O)c3nn(C)cc3c3ccc(C(F)(F)F)nc32)cn1 [Compound B223]
< 500,27.7,200 to 1000,919,500 to 2000,1030,< 200,16.5,< 100,30.9,,,Cc1ncccc1-n1c(=O)c2nn(C3CC3)cc2c2ccc(Cl)cc21 [Compound B226]
≥ 2000,4710,> 3000,3030,≥ 2000,≥ 2000,> 3000,4690,< 100,51.8,,,Cn1cc2c(n1)c(=O)n(-c1cnccn1)c1nc(C(F)(F)F)ccc21 [Compound B227]
≥ 2000,3450,> 3000,3220,≥ 2000,> 2000,1000 to 3000,2910,< 100,37.3,,,Cn1cc2c(n1)c(=O)n(-c1ccc(F)c(O)c1)c1nc(C(F)(F)F)ccc21 [Compound B228]
